In one series the test system is human A549 cells. Description: Cytotoxicity assay (MTT). Format: cell-based. Particulars: for IC50: MTT, 48 hours. As to the method:
Cytotoxicity assays were performed using human A549 cells (adenocarcinomic human alveolar epithelial cells), as described by us previously.^44 Briefly, cells were cultured in F-12K Nutrient mixture (Kaighn's Modification) media containing L-glutamine, supplemented with 10% fetal bovine serum and 1% penicillin-streptomycin for 3 days at 37° and 5% CO2. Cells were then diluted to 1.0×10^5 ml^−1 using F-12K supplemented media, and added to 96 well tissue culture plates at a volume of 100 μl. Plates were incubated for 24 hours at 37° C. and 5% CO2, allowing the cells to adhere to the plastic. […] Plates were then incubated for 48 hours at 37° C. and 5% CO2. After 48 hours the media was removed, and new media added containing MTT (3-(4, 5-dimethylthiazol-2-yl)-2, 5-diphenyltetrazolium bromide), followed by incubation for four hours at 37° C. and 5% CO2. After 4 h, 50 μl of media was removed, replaced with DMSO and incubated for ten minutes at 37° C. in order to solubilize any formazan produced. A Biotek plate reader was used to measure the absorbance of formazan production at […], and IC50 values were determined for each of the five compounds. Front runners were solvated in 45% w/v (2-hydroxypropyl)-β-cyclodextrin in water for these studies; which was also used alone as a negative control. IC50 values were determined for each compound by comparison to vehicle only controls, to assess toxicity to human cells.

The subject of series [1] is P. aeruginosa. Description: MIC reanalysis in the presence of the efflux inhibitor reserpine. Format: cell-based, Pseudomonas aeruginosa. The text has this:
(§1) Given the minor variations observed in MIC for three of the Gram-negative organisms, and that these particular bacteria are renowned for efflux detoxification of antibacterial agents, we hypothesized that the differences observed likely relate to variation in efflux pump activity between strains. […] The effects observed appear to be universal, regardless of strain or compound tested. […] It should be noted that the data presented herein represents a worst-case scenario. […] Similar data was returned for all front runner agents, against all 10 isolates of the three Gram-negative organisms (data not shown). These findings support the hypothesis that inherent efflux mechanisms of certain Gram-negative organisms result in MIC variations for the lead bis-cyclic guanidines between clinical isolates.

For a further series, the system named is E. cloacae. The series is described as above. The class given is cell-based, Enterobacter cloacae. Particulars: E. cloacae strain 1446; with 100 μM of reserpine.
Description: as §1

Series [2] relates to P. aeruginosa. Format: cell-based, Pseudomonas aeruginosa. The note with it: 8 passages, concentration doubled each day. As to the method:
ESKAPE pathogens were grown overnight in liquid media at 37° C. These cultures were then diluted 1:100 in fresh media, and seeded into a 96-well plate. Lead bis-cyclic guanidines or control agents were added to respective wells at half MIC concentrations. […] These were then grown overnight, and the procedure repeated for a total of eight days.

A further series has as its system K. pneumoniae. Description: MIC reanalysis in the presence of the efflux inhibitor reserpine. The class given is cell-based, Klebsiella pneumoniae. The note with it: K. pneumoniae strain 1441; with 100 μM of reserpine.
Description: as §1

[3] abbreviates: 225 μM (highest concentration tested).
Where [4] appears, read: above 45 μM, at concentrations up to 225 μM.

The IC50 is the concentration that gives 50% inhibition. The low end stands for higher potency, the high end for lower potency.

A value given as a limit tells only on which side of the number the result lay.

`CCCCCCCN1C(=N)N(CCCC[C@H]2CNC(=N)N2CCc2cccc(C(F)(F)F)c2)C[C@@H]1CCCC` [Compound 1]: the “A549 cell recovery compared to vehicle only controls” value in the series with human A549 cells (setting [3]) is given as “around 40%”. Also, it took 164 µM to reach half-maximal inhibition with human A549 cells (Homo sapiens, A549) (IC50). Further, the “effect on growth, combined with reserpine” value in the series on P. aeruginosa [1] (P. aeruginosa isolate 1420, 2 μM compound plus 100 μM reserpine) is recorded as “strongly inhibited growth”. Moreover, in the series on P. aeruginosa [1] (P. aeruginosa isolate 1420, 100 μM of reserpine or 2 μM of compound 1 individually), the “effect on growth, agent alone” value is “no effect”.
In the series on human A549 cells (Homo sapiens, A549), `CCCC[C@H]1CN(CCCC[C@H]2CNC(=N)N2CCc2cccc(C(F)(F)F)c2)C(=N)N1CCCCC1CCCCC1` [Compound 2, (S)-4-butyl-3-(4-cyclohexylbutyl)-1-(4-((S)-2-imino-3-(3-(trifluoromethyl)phenethyl)imidazolidin-4-yl)butyl)imidazolidin-2-imine] had an IC50 of 125 µM.
The molecule `CCCCCCCN1C(=N)N(CCCC[C@H]2CNC(=N)N2CCc2cccc(C(F)(F)F)c2)C[C@@H]1CC1CCCCC1` [Compound 7] registered an IC50 with human A549 cells (Homo sapiens, A549) of 65.7 µM. The “A549 cell recovery compared to vehicle only controls” value with human A549 cells (setting [4]) is not below 33%. In addition, the “effect on growth, in combination with reserpine” value with E. cloacae is listed as “complete inhibition of growth”.
Turning to `CCCCCCCN1C(=N)N(CCCC[C@H]2CNC(=N)N2CCCCC2CCCCC2)C[C@@H]1CC1CCCCC1` [Compound 16], the IC50 in the series on human A549 cells (Homo sapiens, A549) is more than 225 µM. In the series with P. aeruginosa [2], the “increase in MIC after serial passage” value is 8 fold. For the same molecule, the “effect on growth, in combination with reserpine” value with K. pneumoniae is given as “complete inhibition of growth”.
As for `CCCCCCCN1C(=N)N(CCCC[C@H]2CNC(=N)N2CCC23CC4CC(CC(C4)C2)C3)C[C@@H]1CCCC` [Compound 19], the “A549 cell recovery compared to vehicle only controls” value is listed as more than 70% in the series with human A549 cells (setting [3]), not below 26% in the series on human A549 cells (setting [4]) and more than 97% in the series with human A549 cells (concentrations up to 45 μM). Also, 146 µM corresponded to half-maximal inhibition in the series on human A549 cells (IC50). In the series with P. aeruginosa [2], the “increase in MIC after serial passage” value is reported as 8 fold. In the series on P. aeruginosa [1] (P. aeruginosa strain 1414, with reserpine), the “effect on growth, paired with reserpine” value was “complete inhibition of growth”.

The values are drawn from patent US20170065564A1, “BIS-CYCLIC GUANIDINE COMPOUND COMPOSITIONS, METHODS OF USE AND TREATMENT THEREOF” (University of South Florida, priority 2014, published 2017).
